Laboratory results reported in ChEMBL document CHEMBL1138604, “Structure-activity relationships of lipopolysaccharide sequestration in N-alkylpolyamines” (Bioorg Med Chem Lett, 2009).
Calls of active or inactive are those of the source. The calls are words filed in the database; no cut-off is given here.

System: HEK293
Assay: Inhibition of LPS-induced NF-kappaB nuclear transactivation in HEK293 cells transfected with TLR4 coexpressing MD2 and CD14 co-receptor assessed as alkaline phosphatase activity by spectrophotometry
Type: cell-based
Settings: Homo sapiens

Structure (SMILES) | Activity
CCCCCCCCCCCCCCCCNCCCNCCCNCCCNCCCN | Active
CCCCCCCCCCCCCCCCNCCCNCCCNCCCCNCCCNCCCN | Active
CCCCCCCCCCCCCCCCNCCCNCCCNCCCCNCCCN | Active
CCCCCCCCCCCCCCCCNCCCNCCCCNCCCN | Active
CCCCCCCCCCCCCCCCNCCCNCCCNCCCNCCCNCCCN | Active
CCCCCCCCCCCCCCCCNCCCNCCCNCCCN | Active
